Laboratory results: patent US8609590B2, “Synergistic combination of flumetsulam with thiabendazole” (Dow Global Technologies LLC, priority 2010, dated 2013)

What was measured:
Assay type in all cases: cell-based
[1] = tested on: Aa + Tv + An + Pf + Ap + Ch; assay: Fungal efficacy testing, modified ASTM 5590, paint film (Diclosulam study, single fungal pool); conditions: for % inhibition: at the total conc given for the same sample; for Total conc: end-point concentration in paint used for SI
Procedure: (§1) Sample preparation: A single or blend of biocides was post added into white acrylic latex paint free of biocides to give a maximum total active ingredient/s concentration tested. This paint was then diluted with a biocide free acrylic latex paint to give targeted concentrations for the testing. Depending on the type of biocide blends tested, the total biocides concentrations varies from 200 to 5000 ppm. After biocides addition or dilution, each sample was hand mixed for at least a minute until uniformity is achieved. Each of the paint samples as well as a control sample (containing no biocide) were used to prepare films on black plastic-vinyl chloride/acetate copolymer panels (LENETA, Mahwah, N.J.) using a 3 mil (0.0762 mm) bird bar applicator. The panels were thoroughly dried for at least 2 days avoiding direct exposure to sunlight. Square discs (0.5 inch; 1.27 cm^2) were cut out from each panel and were used as the substrate for fungal and algal efficacy tests. This sample size allowed for an agar border when the sample disc was placed into the well of the test plate. Each sample was tested in duplicate
(§2) The appropriate media (BOLD'S 3N for Chlorophytes, BG-11 for Cyanobacteria, and PDA for fungi) were used to support microbial growth. The test plates were maintained at room temp (25° C.-26° C.), in a cycled light-dark environment, for four weeks for algae. Plates for fungal challenge tests were maintained at 30 C for four weeks. At the end of the incubation period the samples were scored for percent area covered by visible microbial growth.
ASTM 5590 is a standard accelerated test method for determining resistance of various coatings (including paints) to fungal defacement. To accommodate for high-throughput screening, this method was scaled down from petri plates to 6-well plates. To set up the test, an agar plug was placed at the bottom of each well of the sterile 6-well plate. A single coupon was placed with a pair of sterile forceps at the center of the agar plug (on top) with the painted surface facing upwards. Fungal inoculums were prepared by mixing equal concentrations (1×10^6 cfu/ml) and equal volumes (depending on number of samples to be tested) of like growing organisms. For Flumetsulam+various IT synergy study, three pools of mixed fungi were prepared as the test inoculum. Cladosporium herbarum was mixed with Aureobasidium pullulans; Aspergillus niger was mixed with Penicillium funiculosum and Alternaria alternata was mixed with Trichoderma viride. For Diclosulam+various IT synergy study, all above fungi were mixed as a single pool. […] The total percent area covered was evaluated and recorded at the end of each week after the 2nd week and recorded in increments of 5%.
(§3) The SI is calculated based on F. C. […]

[2] = tested on: Cp + To + Ta + Cs + Ck + Nc; assay: Algal efficacy testing, modified ASTM 5589, paint film (Diclosulam study); conditions: for % inhibition: at the total conc given for the same sample; for Total conc: end-point concentration in paint used for SI
Procedure: as §1, §2
(§4) ASTM 5589 is a standard accelerated test method for determining resistance of various coatings (including paints) to algal defacement. To accommodate for high-throughput screening, this method was scaled down from petri plates to 6-well plates. A single coupon was placed with a pair of sterile forceps at the center of the agar plug (on top) with the painted surface facing upwards. Algal inoculums were prepared by mixing equal concentrations (1×10^6 cfu/ml) and equal volumes (depending on number of samples to be inoculated) of like growing organisms.
(§5) In Diclosulam+various IT synergy study, only two pools of mixed algae were prepared; Gloeocapsa sp. and Oscillatoria sp. grown on BG-11 media and Chlorella sp., Chlorella kessleri, Nostoc commune, Trentepohlia aurea, Tretepohlia odorata, and Calotrix parientina grown on Bold media
Each well that contains a tested coupon was inoculated with 400 μl of organism mixture (1×10^6 cfu/ml) making sure that the whole surface (paint film as well as the agar surrounding it) was evenly covered. […] The total area covered was evaluated at the end of each week according to percent area covered in 5% increments.
as §3

[3] = tested on: Gloeocapsa sp. and Oscillatoria sp. (Gs + Os); assay: Algal efficacy testing, modified ASTM 5589, paint film; conditions: for % inhibition: at the total conc given for the same sample; for Total conc: end-point concentration in paint used for SI
Procedure: as §1, §2, §4
(§6) In Flumetsulam+various IT synergy study, three pool of mixed algae were prepared as the test inoculum, Gloeocapsa sp. and Oscillatoria sp. a mix of cyanobacteria grown on BG-11 media; Chlorella sp., Chlorella kessleri, and Nostoc commune are unicellular chlorphytes that were mixed and grown on Bold media; Trentepohlia aurea, Tretepohlia odorata, and Calotrix parientina are filamentous algae that were mixed and grown on Bold media.
as §5
(§7) Each well that contains a tested coupon was inoculated with 400 μl of organism mixture (1×10^6 cfu/ml) making sure that the whole surface (paint film as well as the agar surrounding it) was evenly covered. The plates were incubated at room temp (25° C.-26° C.) with cyclic exposure to light (OTT-Lite model # OTL4012P, 40 Watt, 26 KLumen) and dark phases, for a period of four weeks. The total area covered was evaluated at the end of each week according to percent area covered in 5% increments.
(§8) The SI is calculated based on F. C. Kull et.

[4] = tested on: Trentepohlia aurea, Tretepohlia odorata, and Calotrix parientina (Cp + To + Ta); assay: Algal efficacy testing, modified ASTM 5589, paint film (Flumetsulam study); conditions: for % inhibition: at the total conc given for the same sample; for Total conc: end-point concentration in paint used for SI, four weeks
Procedure: as §1, §2, §4, §6, §7, §8

[5] = tested on: Chlorella sp., Chlorella kessleri, and Nostoc commune (Cs + Ck + Nc); assay: as above; conditions: for % inhibition: at the total conc given for the same sample; for Total conc: end-point concentration in paint used for SI, four weeks
Procedure: as §1, §2, §4, §6, §7, §8

[6] = tested on: Cladosporium herbarum mixed with Aureobasidium pullulans (ApCh); assay: Fungal efficacy testing, modified ASTM 5590, paint film (Flumetsulam study); conditions: for % inhibition: at the total conc given for the same sample; for Total conc: end-point concentration in paint used for SI, four weeks, 30 C
Procedure: as §1, §2
(§9) ASTM 5590 is a standard accelerated test method for determining resistance of various coatings (including paints) to fungal defacement. To accommodate for high-throughput screening, this method was scaled down from petri plates to 6-well plates. To set up the test, an agar plug was placed at the bottom of each well of the sterile 6-well plate. A single coupon was placed with a pair of sterile forceps at the center of the agar plug (on top) with the painted surface facing upwards. Fungal inoculums were prepared by mixing equal concentrations (1×10^6 cfu/ml) and equal volumes (depending on number of samples to be tested) of like growing organisms. For Flumetsulam+various IT synergy study, three pools of mixed fungi were prepared as the test inoculum. Cladosporium herbarum was mixed with Aureobasidium pullulans; Aspergillus niger was mixed with Penicillium funiculosum and Alternaria alternata was mixed with Trichoderma viride. For Diclosulam+various IT synergy study, all above fungi were mixed as a single pool. Each well was inoculated with 400 μl of organism mixture (1×10^6 cfu/ml) making sure that the whole surface (paint film as well as the agar surrounding it) was evenly covered. The plates were incubated at 30° C. in presence of moisture, for a period of four weeks. The total percent area covered was evaluated and recorded at the end of each week after the 2nd week and recorded in increments of 5%.
as §8

[7] = tested on: Alternaria alternata mixed with Trichoderma viride (AaTv); assay: as above; conditions: for % inhibition: at the total conc given for the same sample; for Total conc: end-point concentration in paint used for SI, four weeks, 30 C
Procedure: as §1, §2, §9, §8

[8] = tested on: Aspergillus niger mixed with Penicillium funiculosum (AnPf); assay: as above; conditions: for % inhibition: at the total conc given for the same sample; for Total conc: end-point concentration in paint used for SI, four weeks, 30 C
Procedure: as §1, §2, §9, §8

| SMILES | % inhibition [1] | Total conc [1] | % inhibition [2] | Total conc [2] | % inhibition ([3]; Diclosulam study) | Total conc ([3]; Diclosulam study) | % inhibition ([3]; Flumetsulam study) | Total conc ([3]; Flumetsulam study, four weeks) | % inhibition [4] | Total conc [4] | % inhibition [5] | Total conc [5] | % inhibition [6] | Total conc [6] | % inhibition [7] | Total conc [7] | % inhibition [8] | Total conc [8] |
| --- | --- | --- | --- | --- | --- | --- | --- | --- | --- | --- | --- | --- | --- | --- | --- | --- | --- | --- |
| CCOc1nc(F)cc2nc(S(=O)(=O)Nc3c(Cl)cccc3Cl)nn12 [Diclosulam, N-(2,6-dichlorophenyl)-5-ethoxy-7-fluoro[1,2,4]triazolo[1,5-c]pyrimidine-2-sulfonamide] | 0% | 3500 ppm | 100% | 1750 ppm | 90% | 875 ppm |  |  |  |  |  |  |  |  |  |  |  |  |
| Cc1ccn2nc(S(=O)(=O)Nc3c(F)cccc3F)nc2n1 [Flumetsulam, N-(2,6-difluorophenyl)-5-methyl[1,2,4]triazolo[1,5-a]pyrimidine-2-sulfonamide] |  |  |  |  |  |  | 90% | 2625 ppm | 75% | 1750 ppm | 100% | 2625 ppm | 50% | 3500 ppm | 0% | 3500 ppm | 90% | 1750 ppm |
| c1ccc2[nH]c(-c3cscn3)nc2c1 [TBZ, thiabendazole] | 60% | 625 ppm | 100% | 1250 ppm | 85% | 1250 ppm | 85% | 3750 ppm | 90% | 3750 ppm | 100% | 2500 ppm | 100% | 625 ppm | 100% | 625 ppm | 100% | 625 ppm |
